US20120190703A1, “SALTS OF 13A-(S)DESOXYTYLOPHORININE, PREPARATION METHODS AND PHARMACEUTICAL COMPOSITIONS AND USES THEREOF” (priority 2009, published 2012)
Several values for one entry are separate records, joined by “and”; a condition that tells them apart may be missing. Identical values can stand only once. Counter-ions that a name gives are not always drawn. Like-named read-outs stand apart in the source and are kept apart here. Marks after values point to notes of the source that are not given here.

Key:
H22 tumor-bearing mice [1] = system: H22 tumor-bearing mice
Description: To determine the pharmacodynamic characters of 13a-(S)-deoxytylophorinine and its salts, the impact of these compounds to the tumor growth in H22 tumor-bearing mice was surveyed.
Male Kunming mice were obtained from the Laboratory Animal Center, Academy of Military Medical Science. Body weight 18˜22 g. 6 animals per group, totally 10 groups, 60 animals.
(+)-13a-(S)-deoxytylophorinine, (+)-13a-(S)-deoxytylophorinine Tartrate, (+)-13a-(S)-deoxytylophorinine Maleate, (+)-13a-(S)-deoxytylophorinine Citrate, Cytoxane (CTX) as positive control.
(+)-13a-(S)-deoxytylophorinine was administered at high dose (5 mg/kg) and low dose (2.5 mg/kg). Three (+)-13a-(S)-deoxytylophorinine salts were administered at high dose and low dose as equal moles with their prototype (Tartrate: 7.05 mg/kg, 3.53 mg/kg; Malate: 6.60 mg/kg, 3.30 mg/kg; Citrate: 7.90 mg/kg, 3.95 mg/kg).
Animals were reared in SPF grade circumstance to be observed for 24 h. The tumor cells liquid which resuscitated in abdominal cavity of KM mice was diluted with aseptic normal saline at 1:3 ratio. The resulting liquid was inoculated subcutaneously at forelimb with 0.2 mL every animal. After the injection over, the animals were divided to […] with 6 animals per group.
Four experimental samples were intragastric administered once daily 24 h after inoculation. The positive control CTX was intraperitoneal injected once daily. The animal body weight was recorded every day.

H22 tumor-bearing mice [2] = system: H22 tumor-bearing mice; remark: listed apart in the source
Method: To observe the impact of 13a-(S)-deoxytylophorinine Sulfate: on the tumor growth of H22 tumor-bearing mice.
Male Kunming mice were obtained from the Laboratory Animal Center, Academy of Military Medical Science. Body weight 18˜22 g.
(+)-13a-(S)-deoxytylophorinine Sulfate, Cytoxane (CTX) as positive control.
All the samples were administered orally. o.d. 0.2 ml/10 g.
(+)-13a-(S)-deoxytylophorinine Sulfate was administered at five dose groups: 3 mg/kg, 4 mg/kg, 5 mg/kg, 6 mg/kg and 8 mg/kg.
Animals were reared in SPF grade circumstance to be observed for 24 h. The tumor cells liquid which resuscitated in abdominal cavity of KM species mice was diluted with aseptic normal saline at 1:3 ratio. The resulting liquid was inoculated subcutaneously at forelimb with 0.2 mL every animal. After the injection over, the animals were divided to 13 groups. Experimental samples were administered 24 h after inoculation.

Solubility in water = format: physicochemical; details: for solubility: water
[3] = Plasma pharmacokinetics after oral administration in mice
Method: To determine the pharmacokinetic characters of 13a-(S)-deoxytylophorinine and its salts, the studies about plasma pharmacokinetics and the character of distribution in brain were pursued.
(§1) Male ICR mice. Body weight 18˜22 g.
(+)-13a-(S)-deoxytylophorinine Tartrate, (+)-13a-(S)-deoxytylophorinine Maleate, (+)-13a-(S)-deoxytylophorinine Citrate. All were dissolved in distilled water as 0.6 mg/ml solution before experiment progressed.
72 mice were divided to 3 groups with 24 animals per group, fasting for 16 h and drinking water freely. […] Plasma was isolated by centrifugalization. After the salts were administered orally, the brain tissues of mice were collected at 5 min, 15 min, 2 h time points. 25% tissue homogenate was prepared with normal saline addition. 200 μL of homogenate and plasma were added isovolumic MeCN to precipitate protein. 5 μL of clear supernatant was analyzed by LC/MS/MS.
(+)-13a-(S)-deoxytylophorinine was dissolved in DMSO and then diluted with MeOH with concentration 10, 50, 100, 500, 1000 and 2500 ng/ml respectively. 10 μl of standard solutions of (+)-13a-(S)-deoxytylophorinine with different concentration above were added to 200 μl of blank plasma sequently to adjust the concentration to 0.5, 2.5, 5, 25, 50, 125 ng/ml respectively. MeCN was added to the solution to precipitate protein, and 5 μl of result clear supernatant was analyzed with LC/MS/MS. Linear regression was ran with the peak area of (+)-13a-(S)-deoxytylophorinine as ordinate and the concentrations as abscissa.

[4] = Drug distribution in brain tissue after oral administration in mice; format: in vivo, ICR mice; details: for Brain contents of (+)-13a-(S)-deoxytylophorinine (ng/ml), Mean ± SD / Brain contents of (+)-13a-(S)-deoxytylophorinine (ng/ml), individual animals 1-3: 6 mg/kg oral
Method: as §1
Plasma was isolated by centrifugalization. […] 25% tissue homogenate was prepared with normal saline addition.
The drug concentration-time data in brain tissue after administered orally of (+)-13a-(S)-deoxytylophorinine tartrate, maleate and citrate were represented in Table 8˜10 and FIG. 6˜8. […] (+)-13a-(S)-deoxytylophorinine could be detected in 5 min. The peak concentration was reached after 15 min, and the compound still can be detected after 2 h after administration.

[5] = 6 mg/kg oral, mice, Time (min) 0.5
[6] = 6 mg/kg oral, mice, Time (min) 1
[7] = male, ICR, mouse, plasma, po, 6 mg/kg
[8] = high dose × 7 d, intragastric once daily, equal moles: prototype 5.0, tartrate 7.05, maleate 6.60, citrate 7.90 mg/kg
[9] = low dose × 7 d, intragastric once daily, equal moles: prototype 2.5, tartrate 3.53, maleate 3.30, citrate 3.95 mg/kg

O=P1(N(CCCl)CCCl)NCCCO1 (stereo not drawn) [CTX, Cytoxan, reference compound]
Animal No. (Initial/Final) (H22 tumor-bearing mice [1]; 100 mg/kg × 1, i.p.): 6/6 | Body Weight(g) Final (H22 tumor-bearing mice [1]; 100 mg/kg × 1, i.p.): 23.77 ± 1.38 g | Body Weight(g) Initial (H22 tumor-bearing mice [1]; 100 mg/kg × 1, i.p.): 21.33 ± 1.63 g⁻¹ | Inhibition (%) (H22 tumor-bearing mice [1]; 100 mg/kg × 1, i.p.): 48.47* % | Tumor Weight (g, mean ± SD) (H22 tumor-bearing mice [1]; 100 mg/kg × 1, i.p.): 0.59 ± 0.26 g | Animal No. (Initial/Final) (H22 tumor-bearing mice [2]; 100 mg/kg × 1, i.p.): 6/6 | Body Weight(g) Final (H22 tumor-bearing mice [2]; 100 mg/kg × 1, i.p.): 25.00 ± 2.37 g | Body Weight(g) Initial (H22 tumor-bearing mice [2]; 100 mg/kg × 1, i.p.): 20.67 ± 2.07 g⁻¹ | Inhibition (%) (H22 tumor-bearing mice [2]; 100 mg/kg × 1, i.p.): 94.76** % | Tumor Weight (g, mean ± SD) (H22 tumor-bearing mice [2]; 100 mg/kg × 1, i.p.): 0.07 ± 0.04 g

COc1ccc2c3c(c4cc(OC)c(OC)cc4c2c1)CN1CCC[C@H]1C3.O=C(O)CC(O)(CC(=O)O)C(=O)O [Citrate, (+)-13a-(S)-deoxytylophorinine Citrate]
Solubility in water (words) (Solubility in water): soluble in water | solubility (Solubility in water): 33 mg/mL | Peak concentration in blood ([3]; 6 mg/kg oral, mice): 20.1 ± 12.2 ng/mL | Time of peak concentration in blood ([3]; 6 mg/kg oral, mice): 15 min | t½z ([3]; 6 mg/kg oral, mice, plasma, non-compartment model): 0.86 h | Blood concentration of (+)-13a-(S)-deoxytylophorinine (ng/ml), Mean ± SD [3, 5]: 12.6 ± 6.5 ng/mL | Blood concentration of (+)-13a-(S)-deoxytylophorinine (ng/ml), individual animals 1-3 [3, 5]: 20.1 ng/mL and 8.4 ng/mL and 9.3 ng/mL | Blood concentration of (+)-13a-(S)-deoxytylophorinine (ng/ml), Mean ± SD [3, 6]: 8.4 ± 2.9 ng/mL | Blood concentration of (+)-13a-(S)-deoxytylophorinine (ng/ml), individual animals 1-3 [3, 6]: 11.2 ng/mL and 5.4 ng/mL and 8.5 ng/mL | AUC(0-inf) [3, 7]: 33.1 ng·h/mL | AUC(0-t) [3, 7]: 32.7 ng·h/mL | Cmax [3, 7]: 20.1 ng/mL | MRT inf [3, 7]: 2.29 h | MRT last [3, 7]: 1.73 h | Tmax [3, 7]: 0.25 h | Animal No. (Initial/Final) (H22 tumor-bearing mice [1]; [8]): 6/5 | Body Weight(g) Final (H22 tumor-bearing mice [1]; [8]): 14.27 ± 2.61 g | Body Weight(g) Initial (H22 tumor-bearing mice [1]; [8]): 22.00 ± 1.55 g⁻¹ | Inhibition (%) (H22 tumor-bearing mice [1]; [8]): 80.44** % | Tumor Weight (g, mean ± SD) (H22 tumor-bearing mice [1]; [8]): 0.22 ± 0.13 g | Animal No. (Initial/Final) (H22 tumor-bearing mice [1]; [9]): 6/6 | Body Weight(g) Final (H22 tumor-bearing mice [1]; [9]): 21.01 ± 2.04 g | Body Weight(g) Initial (H22 tumor-bearing mice [1]; [9]): 21.83 ± 0.75 g⁻¹ | Inhibition (%) (H22 tumor-bearing mice [1]; [9]): 46.87* % | Tumor Weight (g, mean ± SD) (H22 tumor-bearing mice [1]; [9]): 0.61 ± 0.35 g | Brain contents of (+)-13a-(S)-deoxytylophorinine (ng/ml), Mean ± SD ([4]; Time (min) 5): 23.6 ± 12.7 ng/mL | Brain contents of (+)-13a-(S)-deoxytylophorinine (ng/ml), individual animals 1-3 ([4]; Time (min) 5): 22.0 ng/mL and 37.1 ng/mL and 11.8 ng/mL | Brain contents of (+)-13a-(S)-deoxytylophorinine (ng/ml), Mean ± SD ([4]; Time (min) 15): 87.3 ± 50.1 ng/mL | Brain contents of (+)-13a-(S)-deoxytylophorinine (ng/ml), individual animals 1-3 ([4]; Time (min) 15): 84.8 ng/mL and 138.7 ng/mL and 38.5 ng/mL | Brain contents of (+)-13a-(S)-deoxytylophorinine (ng/ml), Mean ± SD ([4]; Time (min) 120): 48.7 ± 14.1 ng/mL | Brain contents of (+)-13a-(S)-deoxytylophorinine (ng/ml), individual animals 1-3 ([4]; Time (min) 120): 37.0 ng/mL and 44.8 ng/mL and 64.4 ng/mL | Drug contents in brain compared with prototype ([4]; oral, 3 time points): lower than its prototype

COc1ccc2c3c(c4cc(OC)c(OC)cc4c2c1)CN1CCC[C@H]1C3 [Sulfate, (+)-13a-(S)-deoxytylophorinine Sulfate]
solubility (Solubility in water): 200 mg/mL | Animal No. (Initial/Final) (H22 tumor-bearing mice [2]; 3 mg/kg × 7, oral (o.p.)): 6/6 | Body Weight(g) Final (H22 tumor-bearing mice [2]; 3 mg/kg × 7, oral (o.p.)): 26.83 ± 2.56 g | Body Weight(g) Initial (H22 tumor-bearing mice [2]; 3 mg/kg × 7, oral (o.p.)): 20.67 ± 0.52 g⁻¹ | Inhibition (%) (H22 tumor-bearing mice [2]; 3 mg/kg × 7, oral (o.p.)): 22.49* % | Tumor Weight (g, mean ± SD) (H22 tumor-bearing mice [2]; 3 mg/kg × 7, oral (o.p.)): 0.98 ± 0.21 g | Animal No. (Initial/Final) (H22 tumor-bearing mice [2]; 4 mg/kg × 7, oral (o.p.)): 6/6 | Body Weight(g) Final (H22 tumor-bearing mice [2]; 4 mg/kg × 7, oral (o.p.)): 22.83 ± 2.40 g | Body Weight(g) Initial (H22 tumor-bearing mice [2]; 4 mg/kg × 7, oral (o.p.)): 20.00 ± 1.26 g⁻¹ | Inhibition (%) (H22 tumor-bearing mice [2]; 4 mg/kg × 7, oral (o.p.)): 52.51* % | Tumor Weight (g, mean ± SD) (H22 tumor-bearing mice [2]; 4 mg/kg × 7, oral (o.p.)): 0.60 ± 0.32 g | Animal No. (Initial/Final) (H22 tumor-bearing mice [2]; 5 mg/kg × 7, oral (o.p.)): 6/6 | Body Weight(g) Final (H22 tumor-bearing mice [2]; 5 mg/kg × 7, oral (o.p.)): 22.17 ± 5.31 g | Body Weight(g) Initial (H22 tumor-bearing mice [2]; 5 mg/kg × 7, oral (o.p.)): 19.83 ± 1.72 g⁻¹ | Inhibition (%) (H22 tumor-bearing mice [2]; 5 mg/kg × 7, oral (o.p.)): 41.75* % | Tumor Weight (g, mean ± SD) (H22 tumor-bearing mice [2]; 5 mg/kg × 7, oral (o.p.)): 0.73 ± 0.39 g | Deaths of mice (table note) (H22 tumor-bearing mice [2]; 6 mg/kg orally): After (+)-13a-(S)-deoxytylophorinine Sulfate (6 mg/kg) was administered orally, one of mice died on sixth day, two of mice died on seventh day. Stop administion. | Animal No. (Initial/Final) (H22 tumor-bearing mice [2]; 6 mg/kg × 6, oral (o.p.)): 6/3 | Body Weight(g) Final (H22 tumor-bearing mice [2]; 6 mg/kg × 6, oral (o.p.)): 15.33 ± 3.21 g | Body Weight(g) Initial (H22 tumor-bearing mice [2]; 6 mg/kg × 6, oral (o.p.)): 19.83 ± 1.72 g⁻¹ | Inhibition (%) (H22 tumor-bearing mice [2]; 6 mg/kg × 6, oral (o.p.)): 68.52** % | Tumor Weight (g, mean ± SD) (H22 tumor-bearing mice [2]; 6 mg/kg × 6, oral (o.p.)): 0.40 ± 0.24 g | Deaths of mice (table note) (H22 tumor-bearing mice [2]; 8 mg/kg orally): After (+)-13a-(S)-deoxytylophorinine Sulfate (8 mg/kg) was administered orally, one of mice died on sixth day, two of mice died on seventh day. Stop administion. | Animal No. (Initial/Final) (H22 tumor-bearing mice [2]; 8 mg/kg × 6, oral (o.p.)): 6/0 | Body Weight(g) Initial (H22 tumor-bearing mice [2]; 8 mg/kg × 6, oral (o.p.)): 20.67 ± 1.03 g⁻¹ | Inhibition (%) (H22 tumor-bearing mice [2]; 8 mg/kg × 6, oral (o.p.)): 88.49** % | Tumor Weight (g, mean ± SD) (H22 tumor-bearing mice [2]; 8 mg/kg × 6, oral (o.p.)): 0.15 ± 0.04 g
